From patent publication US7771977B2, “Alkane polyol dehydrogenase” (National University Corporation Nara Institute of Science …, priority 2006, dated 2010)

B1: Superdex 200: purified alkane polyol dehydrogenase of Pichia ofunaensis (SEQ ID NO: 1) after Superdex 200 gel filtration (protein, listed as Pichia ofunaensis)
chain: MKGLLYYKTGDIRYSEDVEEPEILSSHDVKIRVKFCGICGTDLKEYTYEGGPLFLPKPGSSDKISGLELPLCPGHEFCGVVEEVGESVTRVKPGDRVAVEATTHCSDAVHYGVHDMELCVACKNGSPNCCTHLSFCGLGGASGGFAEKVVYGEEHMLKLPDSIPFDIGALIEPLAVAWHAVECAKFKPGSTALVLGGGPIGLATILALQGHQAGRIVCSEPACIRREYAAKFGAEVFDPSQHDDVIHELKALLPENGGFDASFDCSGVPQTFTTSIEALAPGGMAVNVAIWGDHAIDFGAMCLTYQEKTCTGSMCYTVKDFEEVINALDKGLISISKARLMITGKVNLKDGVELGFKQLIEHKETNIKILVTPDEV

Tests used:
[1] = tested on: alkane polyol dehydrogenase (purified enzyme); assay type: biochemical, Pichia ofunaensis; conditions: purified enzyme; substrate 100 mM; 2 mM NAD+; pH 8.0; 25° C.
Experimental: The reaction solutions were prepared using plural substrates with varied concentrations. Each solution contained a substrate, 2 mM NAD^+, and an enzyme, and was allowed to react in a 100 mM potassium phosphate buffer solution (pH 8.0) at 25° C. Then, changes in absorbance (molar absorption coefficient 6,220 M^−1·cm^−1) at 340 nm due to the NADH formation were measured. 1 U is defined as an enzyme amount for catalyzing 1 μmol NADH formation per minute.
The alkane polyol dehydrogenase obtained in Example 1 was utilized to measure the enzyme activities in the following manner.
1 U was defined as the amount of enzyme that catalyzes the formation of 1 μmol of NADH per minute.
Measurement was performed in the same manner as in the activity measurements described earlier in 4-1.
Such activity was measured by causing a reaction mixture containing 5 mM (R)-1,2-octanediol, 2 mM NAD^+ and enzyme to react in a 100 mM potassium phosphate buffer solution (pH 8.0) at 25° C., then observing the change, due to NADH formation, of absorbance (molecular absorption coefficient 6,220 M^−1 ·cm^−1) at 340 nm. 1 U was defined as the amount of enzyme that catalyzes the formation of 1 μmol of NADH per minute.

[2] = tested on: Pichia ofunaensis AKU4328 cells; experiment: Glycerol dehydrogenation activity of glycerol-induced Pichia ofunaensis cells; assay type: biochemical
From the text: Pichia ofunaensis AKU4328 was pre-cultured in medium containing 4 g/L of ammonium chloride, 1 g/L of phosphoric acid 2 hydrogen 1 potassium, 1 g/L of phosphoric acid 1 hydrogen 2 potassium, 0.5 g/L of magnesium sulfate 7 hydrate, 1 g/L of yeast extract, and 1% glucose. Ten hours after the initiation of the main culture in induction medium consisting of a basal medium with 1% glycerol, the cells were harvested. Since the specific activity of glycerol was 3.6 U/mg (protein), it was confirmed that the same protein as the purified enzyme obtained in Example 1 was expressed by 7%.
In relation to the measurement of the enzyme activity, a reaction mixture containing a […] ammonium chloride/ammonia buffer (pH 9.0), 100 mM glycerol, 2.0 mM NAD^+ and an enzyme solution was subjected to a reaction at 25° C.; subsequently, the change, due to NADH formation, of absorbance (molecular absorption coefficient 6,220 M^−1 ·cm^−1) at 340 nm was measured. 1 U refers to the amount of enzyme that catalyzes the formation of 1 μmol of NADH per minute. […]
The activity at this time was measured by causing a reaction mixture containing a 100 mM ammonium chloride/ammonia buffer (pH 9.0), 100 mM glycerol, 2.0 mM NAD^+ and an enzyme solution to react at 25° C., then observing the change, due to NADH formation, of absorbance (molecular absorption coefficient 6,220 M^−1·cm^−1) at 340 nm. […]

[3] = Enzyme activity of purification fractions with 100 mM glycerol; assay type: biochemical, Pichia ofunaensis; conditions: 2 mM NAD+, pH 8.0, 25° C., purification step
Experimental: The entire purification process was performed at 4° C., unless otherwise indicated. The cells (20 g wet cell weight) prepared as above in 1-1, were suspended in buffer solution A (100 mM potassium phosphate buffer solution (pH 7.0) and 1 mM dithiothreitol (hereinafter simply referred to as DTT)). The resulting suspension was mixed with 100 ml of glass beads, and disrupted with a bead beater (produced by BioSpec, Bartlesville, USA).
The obtained cell extract was allowed to adsorb to a DEAE-cellulose column (diameter 4.0 cm×height 3.5 cm, produced by Wako Pure Chemical Ind. Ltd., Osaka) that was pre-equilibrated with buffer solution A. Thereafter, the gradient of 0-1 M potassium chloride was applied to buffer solution A to elute protein at a flow rate of 1 ml/min.
The eluted active fractions were collected, and dialyzed against buffer solution A containing 40% saturated ammonium sulfate. […]
In connection with the enzyme activity, a reaction mixture containing 100 mM glycerol, 2 mM NAD^+ and enzyme was allowed to react in a 100 mM potassium phosphate buffer solution (pH 8.0) at 25° C.; subsequently, the change, due to NADH formation, of absorbance (molar absorption coefficient 6,220 M^−1·cm^−1) at 340 nm was measured and analyzed. […]

Molecule | Oxidative Activity [1] | specific activity of the cells against glycerol ([2]; 1% glycerol induction, 100 mM glycerol, 2.0 mM NAD+, pH 9.0, 25° C.) | glycerol dehydrogenation activity per 1 kg of wet cell weight ([2]; per 1 kg wet cell weight) | Specific Activity [3]
OCC(O)CO [Glycerol] | 39.1 U/mg | 3.6 U/mg (protein) | 1,300,000 U | –
B1 | – | – | – | 51 U/mg
